Here are results for 4 compounds from patent publication US20240366638A1, “[…] FOR TREATING PSY[…]” (SYNAPTIVE THERAPEUTICS LLC, priority 2021, published 2024).

Entries after “also recorded” stand apart in the source; their conditions may differ.

Assay [1] deals with male C57BL/6 mice. Nature of the assay: Elevated plus maze (EPM), time on open arms. It is filed as in vivo. The arrangement: key to EPM: ↓ = decrease; ↑ = increase; neg = negative; pos = positive; ns = not statistically significant. The settings on record: for EPM: summary of effect on behavior (time on open arms), doses tested IP; for Time spent on the open arms of the EPM, statistical comparison between groups: various doses IP, 5 minutes, one-way ANOVA with Tukey's test, diazepam positive control. The procedure: (§1) The elevated plus maze (EPM) is a behavioral assay that measures anxiety in rodents. The apparatus is composed of open and closed arms arranged in a “plus” measuring, 35 cm arm length; 5 cm arm width; 20 cm wall height and stands 61 cm height. Each mouse was placed on the maze within the center area facing towards an open arm and allowed to explore the EPM for 5 minutes. The experimenter observed the mouse from outside the test room through an observational window. Behavior was recorded via a digital camera mounted above the maze. The apparatus was cleaned with Peroxigard wipes after each trial.
(§2) Statistical analysis. Data were analyzed using a one-way ANOVA with drug dose as the primary factor. Post-hoc multiple comparison analysis was performed following significant main effects using Tukey's multiple comparisons test (GraphPad Prism 9.2.0). Statistical significance was set at P<0.05.
(§3) Results. A total of 170 male C57BL/6 mice were used for this study (see TABLE 3.). One mouse in the diazepam group died of unknown causes. Another mouse developed a skin condition in the aeruginascin (1.0 mg/kg) group and was excluded from the FST test. All other test groups consisted of N=10 per group. Statistical comparisons are noted in each figure legend.

Assay [2] concerns male C57BL/6 mice. As to the kind of experiment: Forced swim test (FST). Conditions: for FST: summary of effect on behavior, doses tested IP, mice; for Forced swim test activity, statistical comparison between groups: various doses IP, 6 minutes, one-way ANOVA with Tukey's test, ketamine positive control. It is filed as in vivo. The arrangement: key to FST: ↓ = decrease; ↑ = increase; neg = negative; pos = positive; ns = not statistically significant. On the procedure: (§4) The forced swim test is a classic behavioral assay to test for depressive behavior such as immobility. The apparatus is composed of a Plexiglas cylinder measuring (20 cm diameter, 45 cm height) that is filled with water maintained at room temperature (23-25 C). During testing, mice were placed into the water by the nape of the neck facing the wall and released and behavior recorded via a digital camera for 6 minutes. After the test, mice were dried off with a towel and placed in their home cage in which half is heated by a heating pad placed underneath the cage. Fecal matter was removed after every test. Water was changed after 10 mice were run in each cylinder. After the completion of the experiment, water was drained and the cylinder cleaned with Peroxigard wipes.
as §2, §3

Assay [3] relates to male C57BL/6 mice. As to the kind of experiment: Open field test (OFT), time in center zone. The arrangement: key to OFT (center time): ↓ = decrease; ↑ = increase; neg = negative; pos = positive; ns = not statistically significant. The settings on record: for OFT (center time): summary of effect on behavior, doses tested IP; for Time in the center zone of the open field chamber, statistical comparison between groups: various doses IP, 30 min period, one-way ANOVA with Tukey's test, diazepam positive control. It is filed as in vivo. On the procedure:
(§5) Methods. The open field test (OFT) was conducted by placing a mouse in a gray chamber 40×40 cm of 30 cm height and allowed to explore at will for 30 minutes. A digital camera positioned above the chamber recorded behavior. Animals that spend more time in the center (open area) compared to along the walls (thigmotaxis) are deemed less anxious. The open field apparatus was cleaned with Peroxigard wipes after each use.
as §2, §3

Assay [4] deals with male C57BL/6 mice. As to the kind of experiment: Open field test (OFT), locomotor activity. It is filed as in vivo. The arrangement: key to OFT: ↓ = decrease; ↑ = increase; neg = negative; pos = positive; ns = not statistically significant. The settings on record: for OFT: summary of effect on overall locomotor activity, doses tested IP, mice; for Locomotor activity in the open field, statistical comparison between groups: various doses IP, 30 min period, one-way ANOVA with Tukey's test, diazepam positive control. The procedure:
as §5, §2, §3

Assay [5] has as its system male C57BL/6 mice. As to the kind of experiment: Animal models of anxiety and depression in mice, overall (OFT, EPM, TST, FST). It is filed as in vivo. Conditions: IP, FST taken together. The procedure:
Summary. The goal of the present project was to assess psilocybin metabolites in animal models of anxiety and depression in mice. Specifically, baeocystin (0.3 mg/kg-30 mg/kg), norbaeocystin (0.3-3.0 mg/kg), aeruginascin (0.3-3.0 mg/kg) and norpsilocin (0.3-3.0 mg/kg) were tested in the open field test (OFT), elevated plus maze (EPM), tail suspension test (TST) and forced swim test (FST). Overall, most compounds were ineffective and/or increased negative behaviors.
as §5, §1
(§6) The tail-suspension test (TST) is a model of depression and has been used to screen prospective antidepressant compounds. It involves suspending mice above the ground by their tails with tape for a predetermined time. A 17 cm piece of tape was taped to the tail (2 cm of the 17 cm) of each mouse and then attached to a metal shelf for 6 minutes. Each mouse was digitally recorded and data analyzed using specialized software with particular focus on time immobile. After the trial, tape was removed and mice returned to their home cage.
as §4, with “After the completion of the experiment, water was drained and the cylinder cleaned with Peroxigard wipes.” left out
Statistical analysis. Data were analyzed using a one-way ANOVA with drug dose as the primary factor. […]

Assay [6] deals with male C57BL/6 mice. As to the kind of experiment: Tail suspension test (TST). It is filed as in vivo. Conditions: for TST: summary of effect on behavior, doses tested IP, mice; for Tail suspension test activity (time immobile), statistical comparison between groups: various doses IP, 6 minutes, one-way ANOVA with Tukey's test, ketamine positive control. The procedure:
as §6, §2, §3

For assay [7] the following is noted: cited from earlier work.

`C[N+](C)(C)CCc1c[nH]c2cccc(OP(=O)(O)O)c12` [Aeruginascin]: in assay [1] (mice), the EPM result is on record as “ns”. Further, the “Time spent on the open arms of the EPM, statistical comparison between groups” value (“Time spent on the open arms of the EPM” below) in assay [1] was “no differences between groups”. In addition, in assay [2], the FST entry was “↑ (neg)”; the “Forced swim test activity, statistical comparison between groups” value (“Forced swim test activity” below) was “significant differences between ketamine and aeruginascin 0.3 and 3.0 mg/kg doses”. Further, in assay [3] (mice), the “OFT (center time)” value was “ns”. In addition, the “Time in the center zone of the open field chamber, statistical comparison between groups” value (shortened to “Time in the center zone”) in assay [3] is “no significant differences between groups”. In addition, in assay [4], the OFT result is reported as “↓ (neg)”; the “Locomotor activity in the open field, statistical comparison between groups” value (“Locomotor activity in the open field” for short) was “significant difference between aeruginascin 0.3 and 1.0 mg/kg”. In addition, the “Overall effect across behavioral tests of anxiety and depression” value (shortened to “Overall effect across behavioral tests”) in assay [5] is recorded as “either produced no significant effect or a significant negative impact across all behavioral tests”. In assay [6], the TST result is recorded as “↑ (neg)”; the “Tail suspension test activity (time immobile), statistical comparison between groups” value (“Tail suspension test activity” for short) is “significant differences between saline and ketamine and all doses of aeruginascin”.
For `CNCCc1c[nH]c2cccc(O)c12` [Norpsilocin], the EPM entry in assay [1] (mice) is listed as “ns”. For the same compound, the “Time spent on the open arms of the EPM” value in assay [1] is recorded as “no differences between groups”. In addition, in assay [2], the FST result is listed as “ns” and the “Forced swim test activity” value is “no differences between any groups”. In addition, the “Time spent in the center zone in the OFT” value in assay [3] (3.0 mg/kg, IP, mice) is “the only compound that increased time spent in the center zone in the OFT and this effect was highly significant”. Further, the “OFT (center time)” value in assay [3] (mice) was “↑ (pos)”. Besides, the “Time in the center zone” value in assay [3] was “significantly increased time spent in the center zone of the OFT; also recorded: highly significant differences between the highest dose of norpsilocin and all other groups”. Also, in assay [4], the OFT entry is on record as “↓ (neg)”; the “Locomotor activity in the open field” value is “significant differences between diazepam and norpsilocin 1.0 and 3.0 mg/kg”. Moreover, in assay [5], the “Overall effect across behavioral tests” value is “can exert anxiolytic effects in mice using certain behavioral procedures; also recorded: have anxiolytic activity and no harmful psychoactive effects, including no depressive activity”. Further, in assay [6], the TST entry is “↑ (neg)”; the “Tail suspension test activity” value was “significant differences between ketamine and all doses of norpsilocin”.
With `CNCCc1c[nH]c2cccc(OP(=O)(O)O)c12` [Baeocystin], the “Time spent on the open arms in the EPM” value in assay [1] (10 mg/kg, IP, mice) is “tended to increase time spent on the open arms however, this did not reach statistical significance”. Further, the “Time spent on the open arm in the EPM” value in assay [1] (30 mg/kg (highest dose), IP, mice) was “significantly increased time spent on the open arm”. Moreover, the EPM entry in assay [1] (mice) was “↑ (pos)”. Also, the “Time spent on the open arms of the EPM” value in assay [1] is on record as “the highest dose of baeocystine increased time spent on the open arm compared to saline”. Also, in assay [2], the FST entry is “ns” and the “Forced swim test activity” value is “no significant differences between groups”. For the same compound, the “Hallucinogenic effect in a self-administered assay” value in assay [7] (4 mg of baeocystin, Gartz research paper) is “a gentle hallucinogenic experience”. Besides, the “Psychoactivity in humans compared with psilocybin” value in assay [7] (10 mg of baeocystin, study reported by Gartz) is recorded as “about as psychoactive as a similar amount of psilocybin”. Also, the “OFT (center time)” value in assay [3] (mice) was “ns”. Further, the “Time in the center zone” value in assay [3] is recorded as “no significant difference between groups”. Also, in assay [4], the OFT result was “↓ (neg)”; the “Locomotor activity in the open field” value is “significant differences between the highest dose of baeocystin and all other groups”. In assay [5], the “Overall effect across behavioral tests” value was “can exert anxiolytic effects in mice using certain behavioral procedures; also recorded: have anxiolytic activity and no harmful psychoactive effects, including no depressive activity”. Further, in assay [6], the TST result is on record as “↑ (neg)”; the “Tail suspension test activity” value is “significant differences between the two highest doses of baeocystin and other groups”.
Regarding `NCCc1c[nH]c2cccc(OP(=O)(O)O)c12` [Norbaeocystin], the EPM result in assay [1] (mice) was “ns”. In addition, the “Time spent on the open arms of the EPM” value in assay [1] was “no differences between groups”. In assay [2], the FST result is recorded as “ns” and the “Forced swim test activity” value was “no significant differences between groups”. Besides, the “OFT (center time)” value in assay [3] (mice) is “↓ (neg)”. The “Time in the center zone” value in assay [3] is “significant difference between diazepam and the highest dose of norbeaocystin”. In assay [4], the OFT result is “ns” and the “Locomotor activity in the open field” value was “a trend towards a difference between norbaeocystin 1.0 vs. 3.0 mg/kg”. The “Overall effect across behavioral tests” value in assay [5] was “either produced no significant effect or a significant negative impact across all behavioral tests”. Also, in assay [6], the TST entry is reported as “↑ (neg)”; the “Tail suspension test activity” value was “significant differences between saline and ketamine and all doses of norbaeocystin”.
